Assay results reported in ChEMBL document CHEMBL1201862, “PubChem BioAssay data set” (2004).
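Compound exposure: 48 hours, 5 concentrations, 96-well plates. GI50 is the concentration that inhibits growth by half.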 The source made the active and inactive calls. Rule as the data show it: active = GI50 up to about 1.1 µM and inactive = higher.

Key:
Assay in all cases: growth of human tumour cells (NCI), 48 h
[1] = tested on: SK-MEL-5
[2] = tested on: HCC 2998
[3] = tested on: OVCAR-3
[4] = tested on: SK-MEL-28
[5] = tested on: SK-MEL-2
[6] = tested on: HOP-92
[7] = tested on: SN12C
[8] = tested on: NCI-H460
[9] = tested on: DMS-114
[10] = tested on: IGROV-1
[11] = tested on: HL-60
[12] = tested on: HT-29
[13] = tested on: DLD-1
[14] = tested on: HOP-18
[15] = tested on: MCF7
[16] = tested on: NCI/ADR-RES

Measured: GI50

CO/C(=N\N=C\c1ccc(Cl)cc1)c1ccncc1
inactive: [1] > 100 µM | [2] > 100 µM | [3] > 100 µM | [4] > 100 µM | [5] > 100 µM | [6] > 100 µM | [7] > 100 µM | [8] > 100 µM | [9] > 100 µM | [10] > 100 µM | [11] > 100 µM | [12] > 100 µM | [13] > 100 µM

CC(=O)OCc1nnn2c1C(OC(C)=O)CC2 (stereo not given)
inactive: [1] > 100 µM | [2] > 100 µM | [3] > 100 µM | [4] > 100 µM | [5] > 100 µM | [6] > 100 µM | [7] > 100 µM | [8] > 100 µM | [9] > 100 µM | [10] > 100 µM | [12] > 100 µM | [13] > 100 µM

COc1cc2c3cc1Oc1c(O)c(OC)cc4c1C(Cc1ccc(O)c(c1)Oc1ccc(cc1)CC3N(C)CC2)N(C)CC4 (stereo not given)
inactive: [1] 18.5 µM | [2] 5.61 µM | [3] 16.9 µM | [4] 18.3 µM | [5] 23.6 µM | [6] 11.9 µM | [7] 15.3 µM | [8] 15.1 µM | [9] 20 µM | [10] 26.2 µM | [11] 21.5 µM | [12] 7.13 µM | [14] 27.9 µM

COCOc1ccc(OC)cc1
inactive: [1] > 100 µM | [2] > 100 µM | [3] > 100 µM | [4] > 100 µM | [5] > 100 µM | [6] > 100 µM | [7] > 100 µM | [15] > 100 µM | [8] > 100 µM | [10] > 100 µM | [11] > 100 µM | [12] > 100 µM | [13] > 100 µM | [14] > 100 µM | [16] > 100 µM

Cc1ccc2c(c1-c1ccccc1)C(=O)OC2
inactive: [1] > 100 µM | [2] > 100 µM | [3] 76.7 µM | [4] > 100 µM | [5] > 100 µM | [7] > 100 µM | [9] 99.3 µM | [10] > 100 µM | [11] > 100 µM | [12] > 100 µM | [13] > 100 µM | [14] > 100 µM

CC(C)(C)c1cc(Cc2ccc(S(C)(=O)=O)cc2)c(O)c(C(C)(C)C)c1
inactive: [1] 16.3 µM | [2] 16.2 µM | [4] 18.2 µM | [5] 16.7 µM | [7] 15.3 µM | [8] 16.8 µM | [9] 13.5 µM | [10] 14.9 µM | [11] 16.5 µM | [12] 14.7 µM | [13] 17.5 µM | [14] 22.7 µM

Cc1cccc(NC(=O)C(=O)C(C(=O)c2ccccc2F)C2OC(=O)c3ccccc32)c1Cl (stereo not given)
inactive: [1] 64 µM | [2] 22.5 µM | [4] 35.1 µM | [5] 16.8 µM | [6] 52.7 µM | [7] 36.7 µM | [8] 33.7 µM | [9] 17.5 µM | [10] 56.8 µM | [11] 20.1 µM | [12] 31.5 µM | [13] 27.9 µM

N#Cc1ccc([N+](=O)[O-])cc1NC(N)=S
inactive: [1] > 100 µM | [2] > 100 µM | [3] > 100 µM | [4] > 100 µM | [5] > 100 µM | [6] > 100 µM | [7] > 100 µM | [10] > 100 µM | [12] > 100 µM | [14] > 100 µM

CCOC(=O)C(C(=O)OCC)c1ccc([N+](=O)[O-])o1
inactive: [1] 17.3 µM | [2] 17.3 µM | [3] 5.73 µM | [4] 14.1 µM | [5] 18.6 µM | [6] 6.62 µM | [7] 18 µM | [8] 20.3 µM | [10] 20.3 µM | [11] 2.65 µM | [12] 14 µM | [13] 4.58 µM | [14] 20 µM

Cc1ccc(N2C(=O)N(c3ccc(C)cc3)C3(SC=NN3C)C2=O)cc1 (stereo not given)
inactive: [1] 30 µM | [2] 98.9 µM | [3] 19.5 µM | [4] > 100 µM | [6] > 100 µM | [7] > 100 µM | [8] > 100 µM | [9] 31.2 µM | [10] > 100 µM | [11] 22.6 µM | [12] 32.4 µM | [13] 67.6 µM | [14] > 100 µM

CC(C)COC(=O)N1N=NC2C3CC(=O)C(O3)C21 (stereo not given)
inactive: [1] > 100 µM | [2] > 100 µM | [3] > 100 µM | [4] > 100 µM | [5] > 100 µM | [6] > 100 µM | [7] > 100 µM | [8] > 100 µM | [9] > 100 µM | [10] > 100 µM | [12] > 100 µM | [13] > 100 µM | [14] > 100 µM

CC1(c2ccc(F)cc2)C(C#N)C(=O)NC(=O)C1C#N (stereo not given)
inactive: [1] > 100 µM | [2] > 100 µM | [3] > 100 µM | [4] > 100 µM | [5] > 100 µM | [6] > 100 µM | [7] > 100 µM | [8] > 100 µM | [9] > 100 µM | [10] > 100 µM | [11] > 100 µM | [12] > 100 µM | [13] > 100 µM

CC/C=C\C/C=C\C/C=C\CCCCCCCC(=O)OCC
inactive: [1] > 100 µM | [2] > 100 µM | [3] > 100 µM | [4] > 100 µM | [5] > 100 µM | [6] > 100 µM | [7] > 100 µM | [9] > 100 µM | [10] > 100 µM | [11] > 100 µM | [12] > 100 µM | [13] > 100 µM | [14] > 100 µM

C#CCOCn1cnc2ncnc(Cl)c21
inactive: [1] > 100 µM | [2] > 100 µM | [3] > 100 µM | [4] > 100 µM | [5] > 100 µM | [6] > 100 µM | [7] > 100 µM | [8] > 100 µM | [9] > 100 µM | [10] > 100 µM | [12] > 100 µM | [13] > 100 µM | [14] > 100 µM

S=P1(Oc2ccccc2)NNP2(=NP(N3CC3)(N3CC3)=NP(N3CC3)(N3CC3)=N2)NN1 (stereo not given)
inactive: [1] > 100 µM | [2] > 100 µM | [3] > 100 µM | [4] > 100 µM | [5] > 100 µM | [7] 84.1 µM | [8] 37.6 µM | [9] > 100 µM | [10] > 100 µM | [11] 30.4 µM | [12] > 100 µM | [13] > 100 µM | [14] > 100 µM
